Measured values as given in publication PMC3514016 (The international journal of biochemistry & cell biology, 2009).
Where a SMILES comes first, the peptide text is derived from it. The star is where a group is joined. AMC = Cc1cc(=O)oc2cc(N*)ccc12; Cbz = O=C(OCc1ccccc1)*

Target: Human CatB (human wild-type cathepsin B) (Homo sapiens, UniProt P07858, S194A)
Conditions: read-out: Human CatB / Km; 37 °C; pH not stated for the Km assay

Row | SMILES | Km
1 | Cc1cc(=O)oc2cc(NC(=O)[C@H](CCCNC(=N)N)NC(=O)[C@H](CCCNC(=N)N)NC(=O)OCc3ccccc3)ccc12 [Z-Arg-Arg-AMC] (Cbz-Arg-Arg-{AMC}) | 100 µM
2 | Cc1cc(=O)oc2cc(NC(=O)[C@H](CCCNC(=N)N)NC(=O)[C@H](Cc3ccccc3)NC(=O)OCc3ccccc3)ccc12 [Z-Phe-Arg-AMC] (Cbz-Phe-Arg-{AMC}) | 47 µM
